According to PMC8389922, “First-in-Class Cyclic Temporin L Analogue: Design, Synthesis, and Antimicrobial Assessment” (Journal of Medicinal Chemistry, 2021):
In brackets after ≈: the same amount, converted by molar mass. Bridge positions count the residues as written; N and C are the ends. Square brackets hold non-standard residues; d marks the D form. Peptide text beside a SMILES is read from it.

Tests used:
B. megaterium Bm11 = type: cell-based, Bacillus megaterium
Protocol: (§1) The antimicrobial activity of peptides 9–26 was assessed against a range of reference bacterial strains such as S. aureus ATCC 25923, Staphylococcus epidermidis ATCC 12228, Bacillus megaterium Bm11, E. coli ATCC 25922, P. aeruginosa ATCC 27853, and A. baumannii ATCC 19606 by the broth microdilution assay to determine the minimal growth inhibitory concentration (MIC, Table 1).[59] First, we evaluated the effects produced by the lactam bridge between Lys and Glu residues placed at different positions along the peptide sequence of reference 9. […] When the i,i+7 cyclization strategy was applied (20–23), a dramatic decrease of bacterial inhibition activity was observed. Specifically, the peptides 20, 22, and 23 only affected the microbial growth of the Gram-positive B. megaterium Bm11, at 12.5 μM. […] Peptide 25, which differs from 9 by the presence of an olefin bridge rather than lactam one, dramatically lost the activity (MIC > 100 μM) vs both Gram-positive and Gram-negative strains.
(§2) The determination of MICs was conducted as previously reported.[61] Aliquots of 50 μL of bacterial culture appropriately diluted were added to each well of a 96-well plate to reach a final cell density of 1 × 10^6 CFU/mL and a final peptide concentration ranging from 100 to 0.78 μM (final volume 100 μL).

[1] = test system: S. epidermidis ATCC 12228; type: cell-based, Staphylococcus epidermidis
Protocol: as §1, §2

A. baumannii ATCC 19606 = type: cell-based, Acinetobacter baumannii
Protocol: as §1, §2

E. coli ATCC 25922 = type: cell-based, Escherichia coli
Protocol: as §1, §2

P. aeruginosa ATCC 27853 = type: cell-based, Pseudomonas aeruginosa
Protocol: as §1, §2

circular dichroism = settings: water; pH ns; 25 °C; 50 uM
S. aureus ATCC 25923 = type: cell-based, Staphylococcus aureus
Protocol: as §1, §2

[2] = CD spectroscopy, secondary structure content (DichroWeb); type: physicochemical
Protocol: The secondary structures of the linear peptide 9 and its stapled analogues 12, 17, and 24–26 were explored by circular dichroism (CD). CD spectroscopy studies were performed in water, and SDS or DPC micelles (20 mM) were used as mimics of the bacterial or mammalian membranes, respectively.[60]
The secondary structure content was predicted based on the CD spectra from 190 to 260 nm using the online server for protein secondary structure analyses, DichroWeb.[61] […] The hydrocarbon-bridged peptide 25 was slightly helical and structured in water, with weak ellipticity at 220 nm. Peptide 25 contains ∼13% regular helix and ∼10% distorted helix, according to the DichroWeb prediction.
All spectra were measured in the 260–190 nm spectral range, 1 nm bandwidth, 4 accumulations, and 100 nm/min scanning speed.[60] Each peptide was dissolved in water to prepare a 1 mM peptide stock solution. The CD spectra were performed in water, in SDS (20 mM) and in DPC (20 mM) using a peptide concentration of 50 μM. The secondary structure content of the peptides was predicted using the online server for protein secondary structure analyses DichroWeb.[61] Input and output units and the wavelength step were θ (mdeg) and 1.0 nm, respectively. The algorithm used was CONTIN-LL,[83] and reference database was set-7. When we have NRMSD > 0.100, we used the CDSSTR method.[83]

[3] = test system: HaCaT cells (human immortalized keratinocytes); experiment: Cytotoxicity, MTT assay; type: cell-based; settings: vs untreated control
Protocol: In particular, the cytotoxicity was evaluated by the 3-(4,5-dimethylthiazol-2-yl)-2,5-diphenyltetrazolium bromide (MTT) assay and is expressed as the percentage of viability of peptide-treated cells compared to that of untreated control cells. As expected, after 2 and 24 h treatments, the cell viability decreased in a concentration-dependent manner for all peptides (Figure 2).
Figure 2 Viability of peptide-treated HaCaT cells evaluated by MTT assay at 2 h (a) and 24 h (b). All data are expressed as a percentage with respect to the untreated control cells and are the mean of three independent experiments ± standard error of the mean (SEM).
The human immortalized keratinocytes HaCaT cells (AddexBio, San Diego, CA) were cultured in Dulbecco’s modified Eagle’s medium containing 4 mM glutamine (DMEMg), supplemented with 10% heat-inactivated fetal bovine serum (FBS) and 0.1 mg/mL of penicillin and streptomycin, at 37 °C and 5% CO2, in 25 or 75 cm^2 flasks.
The quantification of cell viability was performed by the in vitro MTT [3-(4,5-dimethylthiazol-2-yl)-2,5-diphenyltetrazolium bromide] assay, as previously reported,[77] measuring the conversion of the soluble yellow dye MTT to insoluble purple formazan by mitochondrial dehydrogenases. More precisely, 4 × 10^4 HaCaT cells, suspended in DMEMg supplemented with 2% FBS without antibiotics, were plated in each well of the 96-well plate. After overnight incubation at 37 °C and 5% CO2, the medium of each well was replaced by DMEMg containing the peptide at different concentrations, as indicated. Controls were HaCaT cells not treated with the peptide. After 2 and 24 h of incubation at 37 °C and 5% CO2, the medium was discarded; 0.5 mg/mL of MTT in Hank’s buffer was added to each well, and the plate was incubated for further 4 h. Acidified isopropanol was then added to dissolve formazan crystals, and the absorbance of each well at 570 nm was measured using a microplate reader (Infinite M200; Tecan, Salzburg, Austria). The purple color intensity is directly proportional to the number of viable cells, which was expressed as a percentage compared to that of untreated control cells (100%).

[4] = CD in DPC micelles (20 mM), peptide 50 μM, 25 °C, DichroWeb
[5] = CD in SDS micelles (20 mM), peptide 50 μM, 25 °C, DichroWeb
[6] = CD in water, peptide 50 μM, 25 °C, DichroWeb
[7] = CD in water, peptide 50 μM, 25 °C, DichroWeb (CONTIN-LL, set-7; CDSSTR if NRMSD > 0.100)

Row | Structure (SMILES) | MIC B. megaterium Bm11 (B. megaterium Bm11) | MIC S. epidermidis ATCC 12228 [1] | MIC A. baumannii ATCC 19606 (A. baumannii ATCC 19606) | MIC E. coli ATCC 25922 (E. coli ATCC 25922) | MIC P. aeruginosa ATCC 27853 (P. aeruginosa ATCC 27853) | helicity (circular dichroism) | MIC S. aureus ATCC 25923 (S. aureus ATCC 25923) | helix-1 (regular α-helix) [2, 4] | helix-2 (distorted α-helix) [2, 4] | random [2, 4] | β-strand-1 (regular β-strand) [2, 4] | β-strand-2 (distorted β-strand) [2, 4] | β-turn [2, 4] | helix-1 (regular α-helix) [2, 5] | helix-2 (distorted α-helix) [2, 5] | random [2, 5] | β-strand-1 (regular β-strand) [2, 5] | β-strand-2 (distorted β-strand) [2, 5] | β-turn [2, 5] | helix-2 (distorted α-helix) [2, 6] | other results
1 | CC[C@H](C)[C@H](NC(=O)[C@H](CCCNC(=N)N)NC(=O)[C@@H]1CSSC[C@H](NC(=O)[C@H](Cc2ccccc2)NC(=O)[C@H](Cc2c[nH]c3ccccc23)NC(=O)[C@@H]2CCCN2C(=O)[C@@H](NC(=O)[C@@H](N)Cc2ccccc2)C(C)C)C(=O)N[C@@H](CCCCN)C(=O)N[C@@H](Cc2ccccc2)C(=O)N[C@H](CC(C)C)C(=O)N1)C(=O)N[C@@H](CC(C)C)C(N)=O [compound 26] (H-FVPWFCKF[dL]CRIL-NH2; disulfide 6-10) | 1.56 µM (≈ 2.6 µg/mL) | 6.25 µM (≈ 10.4 µg/mL) | 25 µM (≈ 41.7 µg/mL) | 25 µM (≈ 41.7 µg/mL) | >100 µM | 8% | 100 µM (≈ 167 µg/mL) | – | – | – | – | – | – | – | – | – | – | – | – | – | –
2 | CC[C@H](C)[C@H](NC(=O)[C@H](CCCNC(=N)N)NC(=O)[C@@H]1CCCCn2cc(nn2)C[C@H](NC(=O)[C@H](Cc2ccccc2)NC(=O)[C@H](Cc2c[nH]c3ccccc23)NC(=O)[C@@H]2CCCN2C(=O)[C@@H](NC(=O)[C@@H](N)Cc2ccccc2)C(C)C)C(=O)N[C@@H](CCCCN)C(=O)N[C@@H](Cc2ccccc2)C(=O)N[C@H](CC(C)C)C(=O)N1)C(=O)N[C@@H](CC(C)C)C(N)=O | – | – | – | – | – | 6% | – | – | – | – | – | – | – | – | – | – | – | – | – | – | –
3 | CC[C@H](C)[C@H](NC(=O)[C@H](CCCNC(=N)N)NC(=O)[C@]1(C)CCCC=CCCC[C@](C)(NC(=O)[C@H](Cc2ccccc2)NC(=O)[C@H](Cc2c[nH]c3ccccc23)NC(=O)[C@@H]2CCCN2C(=O)[C@@H](NC(=O)[C@@H](N)Cc2ccccc2)C(C)C)C(=O)N[C@@H](CCCCN)C(=O)N[C@@H](Cc2ccccc2)C(=O)N[C@H](CC(C)C)C(=O)N1)C(=O)N[C@@H](CC(C)C)C(N)=O [compound 25] | 100 µM (≈ 172 µg/mL) | >100 µM | >100 µM | >100 µM | >100 µM | 23% | >100 µM | 54% | 34% | 0% | 0% | 7% | 5% | 41% | 22% | 28% | 0% | 4% | 5% | 10% | aggregation in water (shape of CD spectrum) ([2]; CD in water, peptide 50 μM, 25 °C): form α-helical aggregates; random [2, 6]: 41%; β-strand-1 (regular β-strand) [2, 6]: 12%; β-strand-2 (distorted β-strand) [2, 6]: 8%; β-turn [2, 6]: 16%; helix-1 (regular α-helix) [2, 7]: 13%
4 | CC[C@H](C)[C@H](NC(=O)[C@H](CCCNC(=N)N)NC(=O)[C@@H]1CCCCNC(=O)CC[C@H](NC(=O)[C@H](Cc2ccccc2)NC(=O)[C@H](Cc2c[nH]c3ccccc23)NC(=O)[C@@H]2CCCN2C(=O)[C@@H](NC(=O)[C@@H](N)Cc2ccccc2)C(C)C)C(=O)N[C@@H](CCCCN)C(=O)N[C@@H](Cc2ccccc2)C(=O)N[C@H](CC(C)C)C(=O)N1)C(=O)N[C@@H](CC(C)C)C(N)=O [compound 24] (H-FVPWFEKF[dL]KRIL-NH2; lactam 6-10) | 1.56 µM (≈ 2.66 µg/mL) | 1.56 µM (≈ 2.66 µg/mL) | 3.12 µM (≈ 5.32 µg/mL) | 25 µM (≈ 42.6 µg/mL) | >100 µM | 7% | 3.12 µM (≈ 5.32 µg/mL) | 69% | 23% | 0% | 0% | 3% | 4% | 59% | 18% | 0% | 11% | 5% | 7% | 6% | HaCaT cell viability ([3]; 2 h treatment, 25 μM, mean of three independent experiments): 60–70%; HaCaT cell viability ([3]; 2 h treatment, 50 μM, mean of three independent experiments): less than 40%; HaCaT cell viability ([3]; 24 h treatment (sentence continues from 50 μM)): less than 20%; helix percentage (total) in SDS solution ([2]; CD in SDS micelles (20 mM), DichroWeb, regular plus distorted helix): about 80%; random [2, 6]: 50%; β-strand-1 (regular β-strand) [2, 6]: 16%; β-strand-2 (distorted β-strand) [2, 6]: 9%; β-turn [2, 6]: 17%; helix-1 (regular α-helix) [2, 7]: 1%
